Measurements as given in ChEMBL document CHEMBL3763039, “Development and Characterization of Potent Cyclic Acyldepsipeptide Analogues with Increased Antimicrobial Activity” (2016).
In brackets after ≈: the same amount, converted by molar mass. Where a SMILES comes first, the peptide text is derived from it. Bridges are numbered along the chain shown (N, C = ends). [ ]: non-standard residue; d: D form. The star is where a group is joined. Phe(3,5-F2) = N[C@@H](Cc1cc(F)cc(F)c1)C(=O)O; Pro(4R-Me) = C[C@H]1CN[C@H](C(=O)O)C1; aThr = C[C@H](O)[C@H](N)C(=O)O; Pip = O=C(O)[C@@H]1CCCCN1; NMeA = CN[C@@H](C)C(=O)O; X1 = CCC/C=C/C=C/C(=O)*

What was measured:
Type in all cases: functional
[1] = tested on: Escherichia coli; experiment: Antibacterial activity against Escherichia coli MC4100 expressing lptD-4213 incubated for 16 to 18 hrs by broth microdilution method
[2] = tested on: Staphylococcus aureus; experiment: Antibacterial activity against methicillin-resistant Staphylococcus aureus 1784A incubated for 16 to 18 hrs by broth microdilution method
[3] = tested on: Listeria innocua; experiment: Antibacterial activity against Listeria innocua incubated for 16 to 18 hrs by broth microdilution method
[4] = tested on: Staphylococcus aureus; experiment: Antibacterial activity against Staphylococcus aureus subsp. aureus Newman clinical isolate incubated for 16 to 18 hrs by broth microdilution method
[5] = tested on: Pseudomonas aeruginosa; experiment: Antibacterial activity against Pseudomonas aeruginosa PAO1 incubated for 16 to 18 hrs by broth microdilution method
[6] = tested on: Bacillus subtilis; experiment: Antibacterial activity against Bacillus subtilis PY79 incubated for 16 to 18 hrs by broth microdilution method
[7] = tested on: Neisseria meningitidis; experiment: Antibacterial activity against Neisseria meningitidis H44/76 incubated for 16 to 18 hrs by broth microdilution method
[8] = tested on: Neisseria meningitidis; experiment: Antibacterial activity against clpP deficient Neisseria meningitidis H44/76 incubated for 16 to 18 hrs by broth microdilution method
[9] = tested on: Enterococcus faecalis; experiment: Antibacterial activity against vancomycin-resistant Enterococcus faecalis V583 incubated for 16 to 18 hrs by broth microdilution method
[10] = tested on: Staphylococcus aureus; experiment: Antibacterial activity against Staphylococcus aureus ATCC 29213 incubated for 16 to 18 hrs by broth microdilution method
[11] = tested on: Neisseria gonorrhoeae; experiment: Antibacterial activity against chloramphenicol-resistant Neisseria gonorrhoeae N.279 incubated for 16 to 18 hrs by broth microdilution method
[12] = tested on: Streptococcus pneumoniae; experiment: Antibacterial activity against Streptococcus pneumoniae D39 incubated for 16 to 18 hrs by broth microdilution method
[13] = tested on: Escherichia coli; experiment: Antibacterial activity against Escherichia coli MC4100 incubated for 16 to 18 hrs by broth microdilution method

Row | Compound | MIC [1] [µg/mL] | MIC [2] [µg/mL] | MIC [3] [µg/mL] | MIC [4] [µg/mL] | MIC [5] [µg/mL] | MIC [6] [µg/mL] | MIC [7] [µg/mL] | MIC [8] [µg/mL] | MIC [9] [µg/mL] | MIC [10] [µg/mL] | MIC [11] [µg/mL] | MIC [12] [µg/mL] | MIC [13] [µg/mL]
1 | CCC/C=C/C=C/C(=O)N[C@@H](Cc1ccccc1)C(=O)N[C@H]1COC(=O)[C@@H]2C[C@@H](C)CN2C(=O)[C@H](C)NC(=O)[C@H](C)N(C)C(=O)[C@@H]2CCCN2C1=O (X1-FSP[NMeA]A[Pro(4R-Me)]; ester 2-C) | > 128 | 0.5 (≈ 0.694 µM) | ≤ 0.0625 | 0.25 (≈ 0.347 µM) | > 128 | 0.125 (≈ 0.173 µM) | 0.0313 (≈ 0.0434 µM) | > 128 | 0.125 (≈ 0.173 µM) | 0.5 (≈ 0.694 µM) | 0.0156 (≈ 0.0216 µM) | ≤ 0.0625 | > 128
2 | CCC/C=C/C=C/C(=O)N[C@@H](Cc1cc(F)cc(F)c1)C(=O)N[C@@H]1C(=O)N2CCC[C@H]2C(=O)N2CCCC[C@H]2C(=O)N[C@@H](C)C(=O)N2C[C@H](C)C[C@H]2C(=O)O[C@H]1C (X1-[Phe(3,5-F2)][aThr]P[Pip]A[Pro(4R-Me)]; ester 2-C) | 4 (≈ 5.02 µM) | 0.125 (≈ 0.157 µM) | ≤ 0.0625 | 0.0625 (≈ 0.0784 µM) | > 128 | ≤ 0.0625 | 0.0313 (≈ 0.0393 µM) | > 128 | 0.0039 (≈ 0.00489 µM) | 0.0019 (≈ 0.00238 µM) | 0.0078 (≈ 0.00979 µM) | ≤ 0.0625 | > 128
